{"source": "PubChem BioAssay (NCI)", "assay_in_all_cases": "growth of human tumour cells (NCI), 384-well format", "key": {"[1]": {"tested_on": "CAKI-1 renal"}, "[2]": {"tested_on": "CCRF-CEM leukemia"}, "[3]": {"tested_on": "EKVX NSCLC"}, "[4]": {"tested_on": "HCT-15 colon"}, "[5]": {"tested_on": "K-562 leukemia"}, "[6]": {"tested_on": "MDA-MB-468 breast"}, "[7]": {"tested_on": "NCI-H460 NSCLC"}, "[8]": {"tested_on": "NCI-H522 lung"}, "[9]": {"tested_on": "NCI/ADR-RES ovarian"}, "[10]": {"tested_on": "OVCAR-4 ovarian"}, "[11]": {"tested_on": "OVCAR-8 ovarian"}, "[12]": {"tested_on": "SF-295 CNS"}, "[13]": {"tested_on": "SR leukemia"}}, "note": "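Here, GI50 denotes the concentration required for 50% inhibition of growth. TGI marks complete inhibition of growth.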", "data": [{"smiles": "COC1(C(=O)N2Cc3nc(Cl)nc(N[C@H](C)c4cc(N)cc(C(F)(F)F)c4)c3C2)CCOCC1", "values": [{"measurement": "GI50", "setting": "[1]", "result": 6.99, "unit": "µM"}, {"measurement": "TGI", "setting": "[1]", "result": 35.4, "unit": "µM"}, {"measurement": "GI50", "setting": "[2]", "result": 15.5, "unit": "µM"}, {"measurement": "TGI", "setting": "[2]", "result": 29.1, "unit": "µM"}, {"measurement": "GI50", "setting": "[3]", "result": 12.8, "unit": "µM"}, {"measurement": "TGI", "setting": "[3]", "result": 38.8, "unit": "µM"}, {"measurement": "GI50", "setting": "[4]", "result": 18.6, "unit": "µM"}, {"measurement": "TGI", "setting": "[4]", "result": 38.9, "unit": "µM"}, {"measurement": "GI50", "setting": "[5]", "result": 0.152, "unit": "µM"}, {"measurement": "TGI", "setting": "[5]", "result": 15, "unit": "µM"}, {"measurement": "GI50", "setting": "[6]", "result": 8.68, "unit": "µM"}, {"measurement": "TGI", "setting": "[6]", "result": 24.8, "unit": "µM"}, {"measurement": "GI50", "setting": "[7]", "result": 16.4, "unit": "µM"}, {"measurement": "TGI", "setting": "[7]", "result": 31, "unit": "µM"}, {"measurement": "GI50", "setting": "[8]", "result": 12.5, "unit": "µM"}, {"measurement": "TGI", "setting": "[8]", "result": 34.4, "unit": "µM"}, {"measurement": "GI50", "setting": "[9]", "result": 17.5, "unit": "µM"}, {"measurement": "TGI", "setting": "[9]", "result": 51.8, "unit": "µM"}, {"measurement": "GI50", "setting": "[10]", "result": 15.6, "unit": "µM"}, {"measurement": "TGI", "setting": "[10]", "result": 43.8, "unit": "µM"}, {"measurement": "GI50", "setting": "[11]", "result": 18.4, "unit": "µM"}, {"measurement": "TGI", "setting": "[11]", "result": 46.1, "unit": "µM"}, {"measurement": "GI50", "setting": "[12]", "result": 15.1, "unit": "µM"}, {"measurement": "TGI", "setting": "[12]", "result": 32.5, "unit": "µM"}, {"measurement": "GI50", "setting": "[13]", "result": 10.5, "unit": "µM"}, {"measurement": "TGI", "setting": "[13]", "result": 22.4, "unit": "µM"}]}]}
